Measured values from patent US20250084039A1, “4-SUBSTITUTED AMINOISOQUINOLINE DERIVATIVES” (Purdue Research Foundation, priority 2016, published 2025).

How the values were obtained:
HL60 = assay: Selectivity, proliferation IC50; type: cell-based; details: Homo sapiens, HL-60; read-out: IC50 HL60 (acute promyelocytic leukemia)
Procedure: (§1) Cell lines were seeded into 96-well plates the afternoon prior to treatment. Approximately 18 hours later, compounds were diluted in dimethyl sulfoxide (DMSO) and added to cells. Plates were incubated for 72 hours and cells viability determined with CellTiter-Blue Cell Viability Assay (Promega, Madison, WI). Plates were read after 4 additional hours of incubation at 37° C. using plate reader (Bio-Tek, Winooski. VT). Data was analyzed and graphed using GraphPad Prism Software (Graphpad. La Jolla, CA).

Kasumi-1 = assay: Selectivity, proliferation IC50; type: cell-based; details: Homo sapiens, read-out: IC50 Kasumi-1 (non-FLT3 AML line)
Procedure: as §1

## Cc1ccc(C(=O)Nc2ccc(CN3CCN(C)CC3)c(C(F)(F)F)c2)cc1C#Cc1c(N)ncc2ccc(Cl)cc12 [HSN286]
HL60
  IC50: 2.16 µM
Kasumi-1
  IC50: > 10 µM
